Each structure is given as a SMILES string.

The record followed here is patent US4533747A, “Leukotriene antagonists intermediates” (SmithKline Beckman Corporation, priority 1983, dated 1985).

The assay addresses T1, leukotriene (LTD4) induced contraction of guinea pig tracheal tissues (Cavia porcellus, UniProt Q2NNR5).
T1 construct: Guinea pig (adult male albino Hartley strain) tracheal spiral strips; from tissue; host or cells: guinea pig (adult male albino Hartley strain) tracheal spiral strips
T1 sequence (Q2NNR5 1-340): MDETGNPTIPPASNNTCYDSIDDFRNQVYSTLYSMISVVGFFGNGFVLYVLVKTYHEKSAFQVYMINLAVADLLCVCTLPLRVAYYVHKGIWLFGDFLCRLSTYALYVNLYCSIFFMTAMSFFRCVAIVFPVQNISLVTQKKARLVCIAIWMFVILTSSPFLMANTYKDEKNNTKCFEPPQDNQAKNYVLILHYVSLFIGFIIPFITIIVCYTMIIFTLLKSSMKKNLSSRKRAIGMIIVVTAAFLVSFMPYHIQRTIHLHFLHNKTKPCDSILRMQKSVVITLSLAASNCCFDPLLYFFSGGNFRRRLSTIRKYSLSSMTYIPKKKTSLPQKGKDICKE
In words: Inhibition of LTD4-induced contraction of guinea pig tracheal tissues in vitro. The format is cell-based, Guinea pig (adult male albino Hartley strain). The note with it: LTD4 cumulative concentration-response; guinea pig tracheal spiral strips; 30 min pretreatment with test compound; meclofenamic acid 1 μM; EC30 relative to carbachol 10 μM; read-out: pA2 (converted). On the procedure: The leukotriene antagonist activity of the compounds of formula (II) is measured by the ability of the compound to inhibit leukotriene induced contraction of guinea pig tracheal tissues in vitro. The following methodology was employed:
In vitro: Guinea pig (adult male albino Hartley strain) tracheal spiral strips of approximate dimensions 2 to 3 mm cross-sectional width and 3.5 cm length were bathed in modified Krebs buffer in jacketed 10 ml tissue bath and continously aerated with 95% O2 /5% CO2. The tissues were connected via silk suture to force displacement transducers for recording isometric tension. The tissues were equilibrated for 1 hr., pretreated for 15 minutes with meclofenamic acid (1 μM) to remove intrinsic prostaglandin responses, and then pretreated for an additional 30 minutes with either the test compound or vehicle control. A cumulative concentration-response curve for LTD4 on triplicate tissues was generated by successive increases in the bath concentration of the LTD4. In order to minimize intertissue variability, the contractions elicited by LTD4 were standardized as a percentage of the maximum response obtained to a reference agonist, carbachol (10 μM).
Calculations: The averages of the triplicate LTD4 concentration-response curves both in the presence and absence of the test compound were plotted on log graph paper. The concentration of LTD4 needed to elicit 30% of the contraction elicited by carbachol was measured and defined as the EC30. The pA2 value for the test compound as determined by the following equations: [formula]
As to `CCCCCCCCCCCC/C=C\C(CO)SCCC(=O)O` (stereo not drawn) [2-[(2-Carboxyethyl)thio]-3(Z)-hexadecen-1-ol], the Kb was 5010 nM. In the case of `CCCCCCCCCCCC/C=C\C(SCCC(=O)O)C(=O)O` (stereo not drawn) [2-[(2-Carboxyethyl)thio]-3(Z)-hexadecenoic acid] it was 1000 nM; in that of `CCCCCCCCCCCC/C=C\C(SCCC(=O)O)C(O)CC(=O)O` (stereo not drawn) [3-Hydroxy-4-[(2-carboxyethyl)thio]-5(Z)-octadecenoic acid], 794 nM.
